Results reported in US20240269170A1, “Treatment of Inflammatory Conditions or Diseases” (Queen Mary University of London, priority 2021, published 2024).

Test system: G6PI peptide induced arthritis in DBA/1 mice
Assay: G6PI peptide induced arthritis, transfer of monocytes from naive mice pre-incubated with MCTR3
Type: in vivo, mouse
Conditions: monocytes incubated with 10 μM RG108 for 15 min before 1 nM MCTR3
Protocol: FIG. 3: MCTR3 reprograms monocyte responses to reduce inflammation and repair inflamed joints. (A-B) Antigen induced arthritis was initiated by administering G6PI peptide (10 μg/mouse) in CFA via intradermal injection to DBA/1 mice. After 25 days mice were treated with 0.5×10^6 monocytes from naive mice that had been pre-incubated with vehicle (PBS+0.1% EtOH) or 1 nM MCTR3 for 90 min at 37° C. via i.v. injection. Disease course was monitored daily by assessing A) clinical scores and B) oedema. Results are mean±SEM and expressed as percent change from day of treatment n=5 per group from two separate experiments. Results are mean±SEM. Statistical differences were calculated using a Two-way ANOVA.
FIG. 11: DNA methyltransferase inhibition prevents MCTR3 reprogramming of protective monocyte responses. […] Disease course was assessed by evaluating A) clinical scores and B) oedema relative to the day of treatment. Results are mean±SEM and expressed as percentage change from day of treatment. n=5 per group and statistics were calculated using a Two-way ANOVA. […]

Structure (SMILES): O=C(O)C(Cc1c[nH]c2ccccc12)N1C(=O)c2ccccc2C1=O (stereo not shown) [RG108]
- protective actions of MCTR3 (ability of reprogrammed monocytes to regulate joint inflammation): abolished
